Each compound was assayed against T1, recombinant full-length human prolyl endopeptidase (PREP) (Homo sapiens, UniProt P48147) (assay: Biochemical human prolyl endopeptidase (PREP) assay with fluorescently labelled substrate). Conditions: substrate Z-Gly-Pro-AMC 50 μM, 32° C., 60 min; some as mean values from multiple independent determinations.
T1 construct: To recombinant full-length human prolyl endopeptidase (PREP, R&D-Systems, 4308-SE); purchased R&D-Systems 4308-SE
T1 sequence (P48147 1-710): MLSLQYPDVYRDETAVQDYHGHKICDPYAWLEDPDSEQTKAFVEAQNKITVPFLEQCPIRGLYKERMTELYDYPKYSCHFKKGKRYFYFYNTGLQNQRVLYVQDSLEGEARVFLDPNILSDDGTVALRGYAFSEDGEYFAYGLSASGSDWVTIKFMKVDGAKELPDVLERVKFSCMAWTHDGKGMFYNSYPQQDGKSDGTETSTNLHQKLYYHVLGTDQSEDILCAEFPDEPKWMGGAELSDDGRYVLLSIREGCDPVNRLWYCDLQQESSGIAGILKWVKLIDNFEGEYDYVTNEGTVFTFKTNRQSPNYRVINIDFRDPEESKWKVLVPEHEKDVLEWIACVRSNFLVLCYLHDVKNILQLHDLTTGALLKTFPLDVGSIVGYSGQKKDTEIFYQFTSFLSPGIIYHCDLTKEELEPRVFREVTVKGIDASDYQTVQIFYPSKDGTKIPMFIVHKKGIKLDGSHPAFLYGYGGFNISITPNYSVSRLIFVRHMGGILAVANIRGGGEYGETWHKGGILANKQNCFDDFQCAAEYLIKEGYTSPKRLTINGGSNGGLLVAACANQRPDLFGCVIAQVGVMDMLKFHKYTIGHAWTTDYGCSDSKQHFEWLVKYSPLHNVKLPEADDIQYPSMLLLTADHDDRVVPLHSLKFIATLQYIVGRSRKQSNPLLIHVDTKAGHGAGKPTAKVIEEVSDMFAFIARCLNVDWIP
Protocol: B-1 Biochemical Human Prolyl Endopeptidase (PREP) Assay for Identification of Inhibitors of PREP Activity Using a Fluorescently Labelled Substrate Principle of the Assay:
The enzymatic conversion of the fluorescent peptide substrate was observed on the basis of the measurement of the fluorescence intensity. The enzyme activity was determined by the ascertaining of the initial slope in the increase in fluorescence. Compounds that inhibit PREP were identified on the basis of the decrease in the initial slope compared to a reaction mixture without test compound.
Determination of Activity:
IC50 values were determined by the plotting of the percentage PREP activity against the concentration of the test substance by interpolation.
To recombinant full-length human prolyl endopeptidase (PREP, R&D-Systems, 4308-SE; final concentration, for example, 0.4 nM, volume: 25 μl) in reaction buffer (50 mM Tris-HCl, pH 7.5; 150 mM NaCl; 0.13% BSA, 5 mM EDTA, 3 mM GSH, 0.005% Brij-35) was added a test compound (in DMSO, in an appropriate final concentration range from 1 nM to 30 μM, volume: 1 μl) in a well of a 384-well microtitre plate. The reaction was initiated by adding the substrate Z-Gly-Pro-AMC (final concentration 50 μM; Z=carboxybenzyl; AMC=7-amino-4-methylcoumarin, volume: 25 μl). The progress of the PREP reaction was observed by measuring the fluorescence intensity in a Tecan SAFIRE II plate spectrophotometer at 32° C. over a period of 60 min (excitation wavelength: 360 nm, emission wavelength: 465 nm).
Table B-1 below collates the IC50 values thus obtained from the human prolyl endopeptidase assay for individual working examples of the invention (some as mean values from multiple independent individual determinations).

SMILES | IC50
O=C(C1CC(C(F)(F)F)Cc2nn(Cc3ccc(C(F)(F)F)nc3)c(=O)n21)N1CCC(F)(F)C1 (racemic) [Example 312, (5RS,7RS)-5-[(3,3-Difluoropyrrolidin-1-yl)carbonyl]-7-(trifluoromethyl)-2-{[6-(trifluoromethyl)pyridin-3-yl]methyl}-5,6,7,8-tetrahydro[1,2,4]triazolo[4,3-a]pyridin-3(2H)-one] | 8.9 nM
O=C(C1C(C(F)(F)F)CCc2nn(Cc3ncc(Cl)cc3Cl)c(=O)n21)N1C[C@@H](F)[C@@H](F)C1 (mixture of isomers) [Example 287, (5RS,6RS)-2-[(3,5-Dichloropyridin-2-yl)methyl]-5-{[(3R,4S)-3,4-difluoropyrrolidin-1-yl]carbonyl}-6-(trifluoromethyl)-5,6,7,8-tetrahydro[1,2,4]triazolo[4,3-a]pyridin-3(2H)-one] | 23 nM
O=C(C1C(C(F)(F)F)CCc2nn(Cc3ncc(Cl)cc3Cl)c(=O)n21)N1CCC(F)(F)C1 (single isomer, unassigned) [Example 290, (5RS,6RS)-2-[(3,5-Dichloropyridin-2-yl)methyl]-5-[(3,3-difluoropyrrolidin-1-yl)carbonyl]-6-(trifluoromethyl)-5,6,7,8-tetrahydro[1,2,4]triazolo[4,3-a]pyridin-3(2H)-one] | 82 nM
O=C(C1CCCc2nn(Cc3ccc(C(F)(F)F)nc3)c(=O)n21)N1CC[C@@H](F)C1 (mixture of isomers) [Example 100, (5RS)-5-{[(3R)-3-Fluoropyrrolidin-1-yl]carbonyl}-2-{[6-(trifluoromethyl)pyridin-3-yl]methyl}-5,6,7,8-tetrahydro[1,2,4]triazolo[4,3-a]pyridin-3(2H)-one] | 7.9 nM
O=C([C@@H]1CCCc2nn(Cc3ccc(C(F)F)nc3)c(=O)n21)N1CCC(F)(F)C1 [Example 208, (5S)-2-{[6-(Difluoromethyl)pyridin-3-yl]methyl}-5-[(3,3-difluoropyrrolidin-1-yl)carbonyl]-5,6,7,8-tetrahydro[1,2,4]triazolo[4,3-a]pyridin-3(2H)-one] | 15 nM
O=C(C1CC(C(F)(F)F)Cc2nn(Cc3ccnc(C(F)(F)F)c3F)c(=O)n21)N1C[C@@H](F)[C@@H](F)C1 (single isomer, unassigned) [Example 259] | 17 nM
O=C([C@@H]1CCCc2nn(Cc3ccc(C(F)(F)F)nc3)c(=O)n21)N1CC2CC1C2 [Example 199, (5S)-5-(2-Azabicyclo[2.1.1]hex-2-ylcarbonyl)-2-{[6-(trifluoromethyl)pyridin-3-yl]methyl}-5,6,7,8-tetrahydro[1,2,4]triazolo[4,3-a]pyridin-3(2H)-one] | 59 nM
O=C(C1CCCc2nn(Cc3ccnc(Cl)c3)c(=O)n21)N1CCCC1 (racemic) [Example 59, (5RS)-2-[(2-Chloropyridin-4-yl)methyl]-5-(pyrrolidin-1-ylcarbonyl)-5,6,7,8-tetrahydro[1,2,4]triazolo[4,3-a]pyridin-3(2H)-one] | 12.2 nM
O=C(C1CC(C(F)(F)F)Cc2nn(Cc3ccc(C(F)(F)F)nc3)c(=O)n21)N1CC(O)C1 (single isomer, unassigned) [Example 234, (5RS,7RS)-5-[(3-Hydroxyazetidin-1-yl)carbonyl]-7-(trifluoromethyl)-2-{[6-(trifluoromethyl)pyridin-3-yl]methyl}-5,6,7,8-tetrahydro[1,2,4]triazolo[4,3-a]pyridin-3(2H)-one] | 120 nM
O=C(C1CCCc2nn(Cc3ccc(C(F)(F)F)nc3)c(=O)n21)N1CCCC1 (racemic) [Example 84, (5RS)-5-(Pyrrolidin-1-ylcarbonyl)-2-{[6-(trifluoromethyl)pyridin-3-yl]methyl}-5,6,7,8-tetrahydro[1,2,4]triazolo[4,3-a]pyridin-3(2H)-one] | 5.7 nM

Compounds with a lower IC50, results first:

IC50 | SMILES
5.1 nM | O=C(C1CC(C(F)(F)F)Cc2nn(Cc3ncc(Cl)cc3F)c(=O)n21)N1C[C@@H](F)[C@@H](F)C1 (mixture of isomers) [Example 266, (5RS,7RS)-2-[(5-Chloro-3-fluoropyridin-3-yl)methyl]-5-{[(3R,4S)-3,4-difluoropyrrolidin-1-yl]carbonyl}-7-(trifluoromethyl)-5,6,7,8-tetrahydro[1,2,4]triazolo[4,3-a]pyridin-3(2H)-one]
4.6 nM | O=C([C@@H]1CCc2nn(Cc3ccc(Cl)nc3)c(=O)n21)N1CCCC1 [Example 52, (5S)-2-[(6-Chloropyridin-3-yl)methyl]-5-(pyrrolidin-1-ylcarbonyl)-2,5,6,7-tetrahydro-3H-pyrrolo[2,1-c][1,2,4]triazol-3-one]
2.6 nM | O=C(C1CC(C(F)(F)F)Cc2nn(Cc3ccnc(C(F)(F)F)c3F)c(=O)n21)N1C[C@@H](F)[C@@H](F)C1 (single isomer, unassigned) [Example 260]
2.5 nM | O=C([C@@H]1CCCc2nn(Cc3ncc(F)cc3F)c(=O)n21)N1C[C@@H](F)[C@@H](F)C1 [Example 411, (5S)-2-[(3,5-Difluoropyridin-2-yl)methyl]-5-{[(3R,4S)-3,4-difluoropyrrolidin-1-yl]carbonyl}-5,6,7,8-tetrahydro[1,2,4]triazolo[4,3-a]pyridin-3(2H)-one]
1.68 nM | O=C([C@@H]1CCCc2nn(Cc3cncc(Cl)c3)c(=O)n21)N1CC[C@H](F)C1 [Example 438, (5S)-2-[(5-Chloropyridin-3-yl)methyl]-5-{[(3S)-3-fluoropyrrolidin-1-yl]carbonyl}-5,6,7,8-tetrahydro[1,2,4]triazolo[4,3-a]pyridin-3(2H)-one]
1.5 nM | CC1CCC(C(=O)N2C[C@@H](F)[C@@H](F)C2)n2c1nn(Cc1ccc(C(F)(F)F)nc1)c2=O (mixture of isomers) [Example 325, (5RS,8RS)-5-{[(3R,4S)-3,4-Difluoropyrrolidin-1-yl]carbonyl}-8-methyl-2-{[6-(trifluoromethyl)pyridin-3-yl]methyl}-5,6,7,8-tetrahydro[1,2,4]triazolo[4,3-a]pyridin-3(2H)-one]
1.1 nM | O=C([C@@H]1CCCc2nn(Cc3ccc(F)cc3)c(=O)n21)N1CCC(F)(F)C1 [Example 451, (5S)-5-[(3,3-Difluoropyrrolidin-1-yl)carbonyl]-2-(4-fluorobenzyl)-5,6,7,8-tetrahydro[1,2,4]triazolo[4,3-a]pyridin-3(2H)-one]
0.95 nM | COc1ccc(Cn2nc3n(c2=O)C(C(=O)N2CCCC2)CCC3)cc1Cl (racemic) [Example 46, (5RS)-2-(3-Chloro-4-methoxybenzyl)-5-(pyrrolidin-1-ylcarbonyl)-5,6,7,8-tetrahydro[1,2,4]triazolo[4,3-a]pyridin-3(2H)-one]
0.535 nM | O=C([C@@H]1CCCc2nn(Cc3ccc(Br)cn3)c(=O)n21)N1CC[C@H](F)C1 [Example 510, (5S)-2-[(5-Bromopyridin-2-yl)methyl]-5-{[(3S)-3-fluoropyrrolidin-1-yl]carbonyl}-5,6,7,8-tetrahydro[1,2,4]triazolo[4,3-a]pyridin-3(2H)-one]
0.52 nM | O=C([C@@H]1CCCc2nn(Cc3ccnc(C(F)(F)F)c3F)c(=O)n21)N1C[C@@H](F)[C@@H](F)C1 [Example 480, (5S)-5-{[(3R,4S)-3,4-Difluoropyrrolidin-1-yl]carbonyl}-2-{[3-fluoro-2-(trifluoromethyl)pyridin-4-yl]methyl}-5,6,7,8-tetrahydro[1,2,4]triazolo[4,3-a]pyridin-3(2H)-one]
0.43 nM | COc1ccc(C2(Cn3nc4n(c3=O)[C@H](C(=O)N3CC(F)C3)CCC4)CC2)cc1 [Example 357, (5S)-5-[(3-Fluoroazetidin-1-yl)carbonyl]-2-{[1-(4-methoxyphenyl)cyclopropyl]methyl}-5,6,7,8-tetrahydro[1,2,4]triazolo[4,3-a]pyridin-3(2H)-one]
0.38 nM | O=C(C1CCCc2nn(Cc3ccc(F)c(C(F)(F)F)c3)c(=O)n21)N1CCCC1 (racemic) [Example 66]
